Experiments:
[1] = logP by reversed-phase HPLC (EEC Directive 79/831 Annex V.A8); type: physicochemical
Excerpt: [table] The calibration is effected with unbranched alkan-2-ones (having 3 to 16 carbon atoms) with known log P values (log P values determined on the basis of the retention times by linear interpolation between two successive alkanones).

Spodoptera frugiperda = Spodoptera frugiperda test (SPODFR spray treatment); type: in vivo; conditions: 500 g/ha, maize leaf discs, after 7 days
Experimental: Spodoptera frugiperda Test (SPODFR Spray Treatment) Solvent: 78.0 parts by weight of acetone • • 1.5 parts by weight of dimethylformamide Emulsifier: 0.5 part by weight of alkylaryl polyglycol ether To prepare an appropriate active ingredient preparation, 1 part by weight of active ingredient is mixed with the stated amounts of solvent and emulsifier, and the concentrate is diluted with emulsifier-containing water to the desired concentration. Discs of maize leaves (Zea mays) are sprayed with an active ingredient preparation of the desired concentration and, after drying, populated with caterpillars of the armyworm (Spodoptera frugiperda). After 7 days, the efficacy in % is determined. 100% means that all caterpillars have been killed; 0% means that none of the caterpillars have been killed.

Phaedon cochleariae = assay: Phaedon test (PHAECO spray treatment); type: in vivo; conditions: 500 g/ha, Chinese cabbage discs, after 7 days
Experimental: Phaedon Test ([…] Spray Treatment) Solvent: 78.0 parts by weight of acetone • • 1.5 parts by weight of dimethylformamide Emulsifier: 0.5 part by weight of alkylaryl polyglycol ether To prepare an appropriate active ingredient preparation, 1 part by weight of active ingredient is mixed with the stated amounts of solvent and emulsifier, and the concentrate is diluted with emulsifier-containing water to the desired concentration. Discs of Chinese cabbage (Brassica pekinensis) are sprayed with an active ingredient preparation of the desired concentration and, after drying, populated with larvae of the mustard beetle (Phaedon cochleariae). After 7 days, the efficacy in % is determined. 100% means that all beetle larvae have been killed; 0% means that none of the beetle larvae have been killed.

Tetranychus urticae = assay: Tetranychus test, OP-resistant (TETRUR spray treatment); type: in vivo; conditions: 500 g/ha, bean leaf discs, after 6 days
Experimental: Tetranychus Test, OP-resistant (TETRUR Spray Treatment)
Solvent: 78.0 parts by weight of acetone • • 1.5 parts by weight of dimethylformamide
Emulsifier: 0.5 part by weight of alkylaryl polyglycol ether
To prepare an appropriate active ingredient preparation, 1 part by weight of active ingredient is mixed with the stated amounts of solvent and emulsifier, and the concentrate is diluted with emulsifier-containing water to the desired concentration. Discs of bean leaves (Phaseolus vulgaris) infested by all stages of the red spider mite (Tetranychus urticae) are sprayed with an active ingredient preparation of the desired concentration. After 6 days, the efficacy in % is determined. 100% means that all spider mites have been killed; 0% means that none of the spider mites have been killed.

[2] = * LC-MS, acidic range, pH 2.7, 0.1% aqueous formic acid / acetonitrile
[3] = ** acidic range, pH 2.3, 0.1% aqueous phosphoric acid / acetonitrile

Row | log P [1, 2] | Compound | efficacy (Phaedon cochleariae) | also measured
1 | 4.51* | CNc1c(-c2cc(Cl)cc(C(F)(F)F)c2)c(C(F)(F)F)nn1-c1nccnc1OC [Ex. 106] |  | 
2 | 6.57* | CCOc1nccnc1-n1nc(C(F)(F)F)c(-c2cc(Cl)cc(C(F)(F)F)c2)c1N(Cc1ccc(OC)cc1)Cc1ccc(OC)cc1 [Ex. 43] | 100% | efficacy (Spodoptera frugiperda): 100%
3 | 5.51* | COc1nccnc1-n1nc(C(F)(F)F)c(-c2cc(Cl)cc(C(F)(F)F)c2)c1NCc1ccc(Cl)cc1 [Ex. 39] |  | 
4 | 4.14* | COc1nccnc1-n1nc(C(F)(F)F)c(-c2cc(SCC(F)(F)F)c(Cl)cc2Cl)c1N [Ex. 179] |  | 
5 | 7.11* | COc1nccnc1-n1nc(C(F)(F)F)c(-c2cc(Cl)cc(C(F)(F)F)c2)c1N(Cc1ccc(Cl)cc1)Cc1ccc(Cl)cc1 [Ex. 38] |  | 
6 | 4.24* | Nc1c(-c2cc(Cl)cc(C(F)(F)F)c2)c(C(F)(F)F)nn1-c1nccnc1-n1cc(F)cn1 [Ex. 45] |  | 
7 | 4.91* | C#CCN(CC#C)c1c(-c2cc(Cl)cc(C(F)(F)F)c2)c(C(F)(F)F)nn1-c1nccnc1OC [Ex. 105] |  | 
8 | 2.76* | Nc1c(-c2cc(Cl)cc(C(F)(F)F)c2)c(C(F)(F)F)nn1-c1nccnc1-n1ccnc1 [Ex. 44] | 100% | efficacy (Spodoptera frugiperda): 100%
9 | 4.27* | Nc1c(-c2cc(Cl)cc(C(F)(F)F)c2)c(C(F)(F)F)nn1-c1nccnc1Br [Ex. 129] |  | 
10 | 4.28* | Nc1c(-c2cc(Cl)cc(C(F)(F)F)c2)c(C(F)(F)F)nn1-c1nccnc1Cl [Ex. 16] |  | 
11 | 7* | CCOc1nccnc1-n1nc(C(F)(F)F)c(-c2cc(Cl)cc(C(F)(F)F)c2)c1N(Cc1ccccc1)Cc1ccccc1 [Ex. 34] |  | 
12 | 3.69* | COc1nccnc1-n1nc(C(F)(F)F)c(-c2cc(Cl)c(Cl)c([S+]([O-])CC(F)(F)F)c2)c1N (stereo not drawn) [Ex. 182] |  | 
13 | 3.29* | C[S+]([O-])c1nccnc1-n1nc(C(F)(F)F)c(-c2cc(Cl)cc(C(F)(F)F)c2)c1N (stereo not drawn) [Ex. 29] |  | 
14 | 4.57* | Nc1c(-c2cc(Cl)cc(C(F)(F)F)c2)c(C(F)(F)F)nn1-c1nccnc1C(F)(F)F [Ex. 130] | 100% | efficacy (Spodoptera frugiperda): 100%
15 | 4.56* | Cc1cnc(C)c(-n2nc(C(F)(F)F)c(-c3cc(Cl)cc(C(F)(F)F)c3)c2N)n1 [Ex. 24] |  | 
16 | 4.16* | Nc1c(-c2cc(Cl)cc(Cl)c2)c(C(F)(F)F)nn1-c1nccnc1Cl [Ex. 56] |  | 
17 | 3.19* | COc1nccnc1-n1nc(C(F)(F)F)c(-c2ccc(N(C)C)c(Cl)c2)c1N [Ex. 122] | 100% | efficacy (Spodoptera frugiperda): 100%

The remaining lines, values behind:

Row | Compound | log P [1, 2] | efficacy (Phaedon cochleariae) | also measured
18 | CCOc1nccnc1-n1nc(C(F)(F)F)c(-c2cc(Cl)cc(C(F)(F)F)c2)c1NCc1ccc(OC)cc1 [Ex. 40] | 5.47* |  | 
19 | CN(C)c1nccnc1-n1nc(C(F)(F)F)c(-c2cc(Cl)cc(C(F)(F)F)c2)c1N [Ex. 25] | 4.28* |  | 
20 | CCOc1cc(-c2c(C(F)(F)F)nn(-c3nccnc3OC)c2N)cc(Cl)c1OCC(F)(F)F [Ex. 144] | 4.21* | 100% | efficacy (Spodoptera frugiperda): 100%; efficacy (Tetranychus urticae): 100%
21 | Nc1c(-c2ccc(Cl)c(Cl)c2)c(C(F)(F)F)nn1-c1nccnc1Cl [Ex. 1] | 4.02* |  | log P [1, 3]: 3.99**;
22 | CS(=O)(=O)c1nccnc1-n1nc(C(F)(F)F)c(-c2cc(Cl)cc(C(F)(F)F)c2)c1N [Ex. 30] | 3.54* |  | 
23 | COc1nccnc1-n1nc(C(F)(F)F)c(-c2cc(Cl)cc(C(F)(F)F)c2)c1N(Cc1ccccc1)Cc1ccccc1 [Ex. 32] | 6.67* |  | 
24 | CCOc1nccnc1-n1nc(C(F)(F)F)c(-c2cc(Cl)cc(C(F)(F)F)c2)c1N(Cc1ccc(Cl)cc1)Cc1ccc(Cl)cc1 [Ex. 36] |  |  | log P [1, 3]: 7.36**
25 | COc1nccnc1-n1nc(C(F)(F)F)c(-c2cc(Cl)c(Cl)c(C(F)(F)F)c2)c1N [Ex. 86] |  | 100% | efficacy (Spodoptera frugiperda): 100%; log P [1, 3]: 4.47**
26 | COc1ccc(CN(Cc2ccc(OC)cc2)c2c(-c3cc(Cl)cc(C(F)(F)F)c3)c(C(F)(F)F)nn2-c2nccnc2OC)cc1 [Ex. 42] | 6.25* |  | 
27 | CCOc1nccnc1-n1nc(C(F)(F)F)c(-c2cc(Cl)cc(C(F)(F)F)c2)c1NCc1ccc(Cl)cc1 [Ex. 37] | 5.84* |  | 
28 | CCOc1cc(-c2c(C(F)(F)F)nn(-c3nccnc3OC)c2N)cc(Br)c1OCC(F)(F)F [Ex. 140] | 4.3* | 100% | efficacy (Spodoptera frugiperda): 100%
29 | N#Cc1nccnc1-n1nc(C(F)(F)F)c(-c2cc(Cl)cc(C(F)(F)F)c2)c1N [Ex. 27] | 3.93* | 100% | 
30 | COc1nccnc1-n1nc(C(F)(F)F)c(-c2ccc3c(c2)CCC(C)(C)O3)c1N [Ex. 145] | 3.68* | 100% | 
31 | COc1cc(-c2c(C(F)(F)F)nn(-c3nccnc3OC)c2N)ccc1OCC(F)(F)F [Ex. 125] | 3.07* | 100% | efficacy (Tetranychus urticae): 90%
32 | Nc1c(-c2cc(Cl)cc(C(F)(F)F)c2)c(C(F)(F)F)nn1-c1cncc(Cl)n1 [Ex. 19] | 5.26* |  | 
33 | COc1nccnc1-n1nc(C(F)(F)F)c(-c2ccc(Cl)c(SC)c2Cl)c1N [Ex. 165] | 4.14* |  | 
34 | COc1nccnc1-n1nc(C(F)(F)F)c(-c2cc(F)c(Cl)cc2Cl)c1N [Ex. 166] | 3.66* | 100% | efficacy (Tetranychus urticae): 90%
35 | COc1nccnc1-n1nc(C(F)(F)F)c(-c2cc(Cl)c(Cl)c(SCC(F)(F)F)c2)c1N [Ex. 180] | 4.43* |  | 
36 | C=C(C)CNc1c(-c2cc(Cl)cc(C(F)(F)F)c2)c(C(F)(F)F)nn1-c1nccnc1OC [Ex. 96] |  |  | efficacy (Tetranychus urticae): 100%
37 | COc1cc(-c2c(C(F)(F)F)nn(-c3nccnc3OC)c2N)cc(C(F)(F)F)c1OC(C)C [Ex. 126] | 4.28* |  | 
38 | CCOc1cc(-c2c(C(F)(F)F)nn(-c3nccnc3OC)c2N)ccc1OCC(F)(F)F [Ex. 127] | 3.68* | 100% | efficacy (Tetranychus urticae): 90%
39 | Cc1nccnc1-n1nc(C(F)(F)F)c(-c2cc(Cl)cc(C(F)(F)F)c2)c1N [Ex. 23] | 4.32* | 100% | efficacy (Tetranychus urticae): 100%
40 | CC(C)Oc1nccnc1-n1nc(C(F)(F)F)c(-c2cc(Cl)cc(C(F)(F)F)c2)c1N [Ex. 13] | 4.84* | 83% | 
41 | CCOc1nccnc1-n1nc(C(F)(F)F)c(-c2cc(Cl)cc(C(F)(F)F)c2)c1NCc1ccccc1 [Ex. 35] | 5.62* |  | efficacy (Tetranychus urticae): 90%
42 | C=C(C)CN(CC(=C)C)c1c(-c2cc(Cl)cc(C(F)(F)F)c2)c(C(F)(F)F)nn1-c1nccnc1OC [compound 104] | 5.22* |  | 
43 | COc1nccnc1-n1nc(C(F)(F)F)c(-c2cc(C(F)(F)F)cc(Cl)n2)c1N [Ex. 55] | 4.54* |  | 
44 | Nc1c(-c2ccc(Cl)cc2)c(C(F)(F)F)nn1-c1nccnc1Cl [Ex. 7] | 3.59* |  | 
45 | Nc1c(-c2cc(Cl)cc(C(F)(F)F)c2)c(C(F)(F)F)nn1-c1nccnc1-n1cccn1 [Ex. 31] | 3.94* |  | 
46 | COc1nccnc1-n1nc(C(F)(F)F)c(-c2cc(Cl)cc(C(F)(F)F)c2)c1N(C)C [compound 107, 1-(3-methoxypyrazin-2-yl)-4-[3-chloro-5-(trifluoromethyl)phenyl]-3-(trifluoromethyl)-1H-pyrazole-5-dimethylamine] |  | 83% | chromatographic logP ([1]; reversed-phase HPLC column, * LC-MS, acidic range, pH 2.7, 0.1% aqueous formic acid / acetonitrile, read-out: log P): 5.11
47 | COc1cc(-c2c(C(F)(F)F)nn(-c3nccnc3OC)c2N)cc(Cl)c1OCC(F)(F)F [Ex. 134] | 3.88* | 100% | efficacy (Spodoptera frugiperda): 100%

From patent publication US20120190687A1, “Pyrazinylpyrazoles” (Bayer CropScience Ag, priority 2009, published 2012)
